Assay results reported in US12306176B2, “Microfluidic bi-directional migration assay” (Ohio State Innovation Foundation, priority 2017, dated 2025).

How the values were obtained:
MDA-MB-231 cells = assay: F-actin polarization ratio in the MBDM assay; format: cell-based, human; conditions: EGF gradient, absence of iEFs (untreated 0.34)
Description: This section reports on the effects of iEFs on the distribution of F-actin in cells migrating along the microtracks of the MBDM assay. To quantify the distribution of F-Actin, a quantity referred to herein as the polarization ratio (PR) was introduced, which has values between 0 and 1.
Cells in the devices were fixed in 3.7 (wt/wt) paraformaldehyde solution for 30 minutes. They were subsequently washed with 1×PBS three times. For F-actin labeling, we blocked the cells for 60 minutes in blocking buffer (0.1% Triton-X and 5% donkey serum in 1×PBS). Cells were then treated with Alexa Fluoro® 488-conjugated or 555-conjugated phalloidin for 60 minutes (1:40, ThermoFisher), again followed by a 1×PBS wash (three times, 10 minutes each). […]
Actin immunofluorescence images were acquired using a Nikon TE200 epifluorescence microscope (Nikon Instruments Inc.) under a 20× objective. The immunofluorescence images were quantified using custom MATLAB scripts. The custom MATLAB script calculated the geometric center for an individual cell, i.e. the arithmetic mean of the locations of all pixels comprising the cell area. Then the distance from this geometric center and angle (0°≤θ≤360°) of every pixel relative to a horizontal axis (θ=0°) was calculated. […] A moment of intensity is calculated for individual pixels and this value is summed for all the pixels in every individual sector. […]

EGFR = assay: Western blot of EGFR phosphorylation (Tyr-1068); format: cell-based, human; conditions: EGF 25 ng/mL, absence of iEFs, 12 hours
Description: For these experiments, 1×10^6 cells/well were plated in 6-well plates in growth media for 12 hours followed by migration media for another 12 hours. Fresh migration media was added to the top three wells in each plate (1, 2, 3) while EGF (25 ng/mL) and supplemental migration media were added to the bottom three wells (4, 5, 6). One of the cell-containing 6-well plates was then treated with iEFs for 12 hours. Immediately after treatment, the plates were placed on ice and each well was then washed three times with 1× tris-buffered saline (TBS, Corning Inc.) solution. TBS was aspirated out and 1 mL ice-cold radioimmunoprecipitation assay (RIPA) buffer, supplemented with a protease inhibitor and a phosphatase inhibitor, was added to each well. Cells were scraped out using a cold plastic cell scraper and the cell suspension was transferred into a pre-cooled microcentrifuge tube. The cell suspension was then spun at 16000 g for 20 minutes in a 4° C. precooled centrifuge. The centrifuge tubes were placed on ice and the supernatants were transferred to fresh tubes and kept on ice. The pellet at the bottom of each microcentrifuge tube was discarded. Protein in each tube was estimated against a standard bovine serum albumin (BSA) solution (1.42 mg/mL) using the DCTM Protein Assay Kit II (Bio-Rad, 500-0112). […]

In the case of epidermal growth factor [EGF], the “center of the F-actin polarization ratio (PR) distribution” value (MDA-MB-231 cells) is reported as 0.62 and the EGFR phosphorylation (EGFR) is reported as “resulted in EGFR phosphorylation”.
